Data published in US12343319B2, “Compositions and methods for treatment of diseases and disorders” (Atai Therapeutics Inc., priority 2023, dated 2025).
Entries after “also recorded” stand apart in the source; their conditions may differ.

Experiments:
[1] = tested on: C57BL/6J male mice; experiment: Mouse forced swim test 24 hr after single administration; type: in vivo; details: 3, 10 & 30 mg/kg i.p., 24 hr post-administration
Protocol: Young adult C57BL/6J male mice (8-9 weeks old at arrival; n=113) were purchased from Charles River (DE). All C57BL/6J mice were housed in groups of 4 per cage. Mice were maintained under controlled conditions (21±2° C., 50±1% humidity, 12/12 h light/dark cycles, lights on at 7 a.m.) with food and water available ad libitum.
Experimental Design: The experimental procedures were in accordance with the European Communities Council Directive (Directive 2010/63 EU into the Polish Directives (Journal of Laws of 2021, item 1331, as amended)) and approved by the Local Ethic Committee in Olsztyn (Approval No. 27/203 from 22 Mar. 2023). […]
Forced Swim Test: After 17 days of acclimatization (11-12 weeks old), all mice were randomly assigned to experimental groups (n=14-15/group). Sample size (n=14 per group) was determined based on G-power calculations using alpha 0.05, t-test and effect size calculation based on mean and SD from vehicle and positive control groups. […] Because little immobility is observed during the first 2 minutes of the FST, only immobility occurring during the last 4 minutes was scored and analyzed. […] All test sessions were recorded using a video camera placed on the side of the cylinder for subsequent behavioral analysis by scorers blinded to the treatment conditions. […]
Data Analysis: Data for each compound have been analyzed separately using the GraphPad Prism 9 statistical software. […]

[2] = target: 5-HT2A receptor (Mus musculus, UniProt P35363); experiment: 5-HT2A receptor binding in mouse frontal cortical tissue
[3] = tested on: primary cortical rat neurons; experiment: Synaptogenesis assay in primary cortical rat neurons; type: cell-based; details: 1 μM (highest concentration), DIV1-DIV10
Protocol: Pregnant rats for this study were purchased from a commercial breeder. Primary cortical neurons from E17/E18 rat pups were isolated and seeded in 96-well plates. Cells were treated with compound 2-2, FGF (Reference item) or vehicle. After incubation with the respective treatment, cortical neurons were stained for synapsin and tubulin using immunofluorescence.
Stained cells were imaged with the Cytation 5 Multimode reader. From each well, 9 images were taken at 10× magnification. Digital images from cortical neurons were analyzed for the following parameter using a software-supported automatic quantification method: Number of synapsin positive objects. Analysis was performed using Gen5 software. The experiment was run in n=10 technical replicates per condition. Vehicle control and FGF were included on each plate totaling n=20 technical replicates.
Primary cortical neurons were prepared from timed pregnant Spargue Dawley rats at E17/E18. Animals were sacrificed (see section 3.3.1) and embryos were dissected in Calcium and Magnesium free Hanks Balanced Salt Solution (CMF-HBSS) containing 15 mM HEPES and 10 mM NaHCO3, pH 7.2. Embryos were decapitated, skin and skull gently removed and hemispheres were separated. After removing meninges and brain stem, the cortices were isolated, chopped with a sterile razor blade in Chop solution (Hibernate-E without Calcium containing 2% B-27) and digested in 2 mg/mL papain (Worthington) dissolved in Hibernate-E without Calcium for 30 minutes (±5 min) at 30° C. The cortices of the embryos from the two rats were pooled and processed together.
Cortices were triturated for 10-15 times with a fire-polished silanized Pasteur pipette in Hibernate-E without Calcium containing 2% B-27, 0.01% DNaseI, 1 mg/mL BSA, and 1 mg/mL Ovomucoid Inhibitor. Undispersed pieces were allowed to settle by gravity for 3 min and the supernatant was centrifuged for 3 min at 228 g. […]
Cells were counted in a hemacytometer and seeded in nutrition medium on poly-D-lysine pre-coated 96-well plates at a density of 1.5×10^4 cells/well. […]

Sequence of 5-HT2A receptor (P35363 whole entry): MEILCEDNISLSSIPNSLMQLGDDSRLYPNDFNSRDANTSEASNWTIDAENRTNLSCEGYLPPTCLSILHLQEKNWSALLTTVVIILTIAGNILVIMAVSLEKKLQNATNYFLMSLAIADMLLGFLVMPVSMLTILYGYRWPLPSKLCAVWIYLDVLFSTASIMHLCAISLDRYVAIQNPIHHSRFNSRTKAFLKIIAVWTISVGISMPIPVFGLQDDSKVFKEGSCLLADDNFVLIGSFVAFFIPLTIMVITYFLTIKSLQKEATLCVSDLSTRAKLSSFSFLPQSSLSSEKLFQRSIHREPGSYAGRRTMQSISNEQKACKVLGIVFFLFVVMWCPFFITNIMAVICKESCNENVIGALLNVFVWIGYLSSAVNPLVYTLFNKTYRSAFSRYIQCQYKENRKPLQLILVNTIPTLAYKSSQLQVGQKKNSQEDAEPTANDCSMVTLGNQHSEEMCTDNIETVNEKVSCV

Structure (SMILES) | immobility time in mouse FST [1] | IC50 [2] | Ki ([2]; Ki, Mean (Mouse), mouse frontal cortical tissue) | synaptogenesis compared to VC (synapsin positive objects normalized to tubulin III area) [3]
COc1ccc(OC)c(CCNCc2cc(C)cc(Cl)c2)c1 [Compound 2-1, N-(3-chloro-5-methylbenzyl)-2-(2,5-dimethoxyphenyl)ethan-1-amine] | lack of robust differences; also recorded: Neither compound 2-1 (3, 10 & 30 mg/kg) nor compound 2-2 (3 & 30 mg/kg) showed significant reductions | – | – | –
COc1ccc(OC)c(CCNCc2cc(C)cc(F)c2)c1 [Compound 2-2, 2-(2,5-dimethoxyphenyl)-N-(3-fluoro-5-methylbenzyl)ethan-1-amine] | – | 20.8 nM | 9.6 nM | did not have any significant effect
